Reference: patent publication US20230233425A1, “USE OF VOLATILE COMPOSITIONS TO LIMIT OR ELIMINATE THE PERCEPTION OF MALODOR” (Firmenich SA, priority 2017, published 2023)
Like-named read-outs stand apart in the source and are kept apart here.

Assays:
[1] = tested on: OR11A1, or the OR2M3 olfactory receptor; test: Geonol olfactory receptor antagonist cell-based screening, inhibitory dose-response vs geonol EC80; parameters: species or system human; conditions: geonol at EC80; read-out: IC50
[2] = tested on: geonol malodor (earthy/moss odor) perception; test: Sensory evaluation of geonol earthy/moss odor in iso-intense binary mixtures (glass jars); type: in vivo, human; conditions: iso-intense binary mixture
Description: Sensory Evaluation: Five 16 oz glass jars containing either REF (geonol only), geonol only control, antagonist only, mixture of geonol and isointense antagonist, or mixture of geonol and low intensity antagonist were presented to the panelists (last four samples were randomized across panelists). The panelists were asked to familiarize themselves with the earthy/moss odor quality from the REF jar first, then rate the pleasantness, earthy/moss odor intensity and overall odor intensity of the next four samples on a 0-10 linear scale. The inter-stimulus interval between the samples was two minutes to avoid adaptation.

[3] = tested on: geonol earthy/moss odor perception; test: Human sensory performance of test compounds with and without geonol; type: in vivo
Method in brief: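 Panelists first learned the earthy/moss quality from a geonol-only reference, then rated pleasantness, earthy/moss intensity and overall intensity of geonol alone, antagonist alone, and geonol mixed with isointense or low-intensity antagonist on a 0-10 linear scale. Samples were presented in glass jars in randomized order with two-minute intervals.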

Olfr738 = Olfr738 (Mus musculus, UniProt L7N1X7); test: Indole antagonist dose-response, cAMP HTRF in HEK293T, vs indole EC80; type: cell-based; conditions: vs indole EC80; for IC50: read-out: Olfr738 IC50
Method: (§1) Using a cell-based assay, mouse receptor Olfr738, Olfr739, Olfr740, Olfr741, 0fr742, Olfr743, Olfr744, Olfr746, Olfr748 and Olfr749 were tested in an HEK293T cell line wherein the endogenous RTP1 gene has been activated and the odorant receptor chaperone was expressed (described in WO2016201153A1). The receptor genes were tagged with a Flag-Rho tag combination. Receptor genes were co-transfected with the canonical olfactory human G-protein alpha subunit Golf gene. Co-expression of the human Golf activates the Gs transduction pathway that leads to an internal cAMP increase upon binding to the appropriate ligand (indole here). Odorant-induced activity was detected by measuring the cAMP increase in the cytosol using an HTRF based kit (CisBio, cAMP dynamic 2 kit, cat. 62AM4PEJ).

Olfr740 = Olfr740 (Mus musculus, UniProt E9PV79); test: as above; type: cell-based; conditions: vs indole EC80; for IC50: read-out: Olfr740 IC50; for Emax: HEK-293T, read-out: Olfr740 % Inhibition
Method: as §1

Olfr741 = Olfr741 (Mus musculus, UniProt L7N1Y5); test: as above; type: cell-based
Method: as §1

Olfr742 = Olfr742 (Mus musculus, UniProt A2RTP5); test: as above; type: cell-based; conditions: vs indole EC80; for IC50: read-out: Olfr742 IC50; for Emax: HEK-293T, read-out: Olfr742 % Inhibition
Method: as §1

Olfr739 = Olfr739 (Mus musculus, UniProt E9Q1P0); test: as above; type: cell-based
Method: as §1, with “Functional dose-response experiments were performed to identify compounds capable of antagonizing indole-sensitive receptors previously identified (U.S. Pat. No. 9,914,760 B2). Using” for “Using”, “62AM4PEJ). The receptors were exposed to binary mixtures of increasing concentrations of the test compounds in the presence of a potent activation concentration of indole (EC80) for each receptor. […] All the compounds listed decreased the indole induced activity of at least one receptor.” for “62AM4PEJ).”

Olfr743 = Olfr743 (Mus musculus, UniProt L7N1Y2); test: as above; type: cell-based; conditions: Table 23
Method: as §1, with “Functional dose-response experiments were performed to identify compounds capable of antagonizing indole-sensitive receptors previously identified (U.S. Pat. No. 9,914,760 B2). Using” for “Using”, “62AM4PEJ). The receptors were exposed to binary mixtures of increasing concentrations of the test compounds in the presence of a potent activation concentration of indole (EC80) for each receptor. […] All the compounds listed decreased the indole induced activity of at least one receptor.” for “62AM4PEJ).”

Olfr744 = target: T1, Olfr744 (Mus musculus, UniProt Q7TRM0); test: as above; type: cell-based; conditions: Table 23
T1 construct: Flag; Rho tag; expressed in transfected cells
T1 sequence (Q7TRM0 1-323): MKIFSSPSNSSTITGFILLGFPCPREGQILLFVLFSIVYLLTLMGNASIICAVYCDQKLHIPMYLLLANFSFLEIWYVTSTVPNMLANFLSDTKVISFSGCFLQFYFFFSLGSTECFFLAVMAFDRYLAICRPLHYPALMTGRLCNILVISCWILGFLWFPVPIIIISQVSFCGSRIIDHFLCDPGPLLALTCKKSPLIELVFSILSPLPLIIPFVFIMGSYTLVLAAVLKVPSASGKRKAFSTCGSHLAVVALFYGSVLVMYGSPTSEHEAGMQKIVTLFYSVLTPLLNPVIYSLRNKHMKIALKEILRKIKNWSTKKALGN
Method: as §1, with “Functional dose-response experiments were performed to identify compounds capable of antagonizing indole-sensitive receptors previously identified (U.S. Pat. No. 9,914,760 B2). Using” for “Using”, “62AM4PEJ). The receptors were exposed to binary mixtures of increasing concentrations of the test compounds in the presence of a potent activation concentration of indole (EC80) for each receptor. […] All the compounds listed decreased the indole induced activity of at least one receptor.” for “62AM4PEJ).”

[4] = tested on: geonol receptors Olfr339, Olfr1487, Olfr1A1, OR11A1, Olfr96; test: Antagonists of geonol receptors (Example 11); type: cell-based, mouse and human; parameters: Inhibition(%): concentration or dose not given beside the values; conditions: Table 18
Olfr746 = target: T2, Olfr746 (Mus musculus, UniProt E9Q840); test: Indole antagonist dose-response, cAMP HTRF in HEK293T, vs indole EC80; type: cell-based; conditions: Table 23
T2 construct: Flag; Rho tag; expressed in transfected cells
T2 sequence (E9Q840 1-314): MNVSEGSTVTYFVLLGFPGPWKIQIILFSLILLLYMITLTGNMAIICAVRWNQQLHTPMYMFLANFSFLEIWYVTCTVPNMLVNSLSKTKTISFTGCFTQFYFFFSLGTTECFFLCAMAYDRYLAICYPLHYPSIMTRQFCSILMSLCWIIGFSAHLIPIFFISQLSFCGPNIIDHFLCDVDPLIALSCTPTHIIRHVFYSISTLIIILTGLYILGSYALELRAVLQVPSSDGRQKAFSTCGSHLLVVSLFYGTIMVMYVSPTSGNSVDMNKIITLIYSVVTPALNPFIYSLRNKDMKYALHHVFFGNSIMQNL
Method: as §1, with “Functional dose-response experiments were performed to identify compounds capable of antagonizing indole-sensitive receptors previously identified (U.S. Pat. No. 9,914,760 B2). Using” for “Using”, “62AM4PEJ). The receptors were exposed to binary mixtures of increasing concentrations of the test compounds in the presence of a potent activation concentration of indole (EC80) for each receptor. […] All the compounds listed decreased the indole induced activity of at least one receptor.” for “62AM4PEJ).”

[5] = tested on: 1-octen-3-ol receptors OR2W1, Olfr93, Olfr120, Olfr398; test: Antagonists of 1-octen-3-ol receptors (Example 11); type: cell-based, mouse and human; parameters: Inhibition(%): concentration or dose not given beside the values; conditions: Table 19
Olfr748 = Olfr748 (Mus musculus, UniProt E9Q9Z0); test: Indole antagonist dose-response, cAMP HTRF in HEK293T, vs indole EC80; type: cell-based; conditions: Table 23
Method: as §1

Olfr749 = target: T3, Olfr749 (Mus musculus, UniProt E9Q438); test: as above; type: cell-based; conditions: Table 23
T3 construct: Flag; Rho tag; expressed in transfected cells
T3 sequence (E9Q438 1-313): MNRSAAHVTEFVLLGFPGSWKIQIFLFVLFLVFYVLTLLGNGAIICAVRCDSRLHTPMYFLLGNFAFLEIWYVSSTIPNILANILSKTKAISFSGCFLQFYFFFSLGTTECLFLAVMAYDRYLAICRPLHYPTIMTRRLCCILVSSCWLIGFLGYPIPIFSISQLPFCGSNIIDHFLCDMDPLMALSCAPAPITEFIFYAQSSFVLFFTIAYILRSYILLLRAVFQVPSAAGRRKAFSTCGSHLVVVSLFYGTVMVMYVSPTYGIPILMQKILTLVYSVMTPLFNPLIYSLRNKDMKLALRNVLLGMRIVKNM
Method: as §1, with “Functional dose-response experiments were performed to identify compounds capable of antagonizing indole-sensitive receptors previously identified (U.S. Pat. No. 9,914,760 B2). Using” for “Using”, “62AM4PEJ). The receptors were exposed to binary mixtures of increasing concentrations of the test compounds in the presence of a potent activation concentration of indole (EC80) for each receptor. […] All the compounds listed decreased the indole induced activity of at least one receptor.” for “62AM4PEJ).”

[6] = Table 22, second listing of the same compounds
[7] = Table 22, first listing (r7-r45)

Chain of Olfr741 (L7N1Y5 entry or part of it): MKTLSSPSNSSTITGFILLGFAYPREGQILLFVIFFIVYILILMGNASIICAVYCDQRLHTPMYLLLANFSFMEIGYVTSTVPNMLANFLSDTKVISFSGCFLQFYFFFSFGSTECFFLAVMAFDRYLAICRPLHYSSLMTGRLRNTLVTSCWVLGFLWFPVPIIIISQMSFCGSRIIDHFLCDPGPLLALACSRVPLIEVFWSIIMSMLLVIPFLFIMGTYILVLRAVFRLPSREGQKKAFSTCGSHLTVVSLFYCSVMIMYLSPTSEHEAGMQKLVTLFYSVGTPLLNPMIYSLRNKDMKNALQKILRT
Chain of Olfr738 (L7N1X7 entry or part of it): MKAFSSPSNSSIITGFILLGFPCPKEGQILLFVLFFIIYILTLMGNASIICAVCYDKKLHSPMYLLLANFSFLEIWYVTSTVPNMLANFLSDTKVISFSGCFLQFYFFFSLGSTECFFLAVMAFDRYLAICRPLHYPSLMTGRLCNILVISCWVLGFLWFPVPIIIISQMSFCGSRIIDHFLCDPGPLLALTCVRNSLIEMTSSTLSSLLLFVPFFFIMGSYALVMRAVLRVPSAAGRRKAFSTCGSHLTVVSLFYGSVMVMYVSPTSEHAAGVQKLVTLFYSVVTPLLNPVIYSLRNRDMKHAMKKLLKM
Chain of Olfr740 (E9PV79 entry or part of it): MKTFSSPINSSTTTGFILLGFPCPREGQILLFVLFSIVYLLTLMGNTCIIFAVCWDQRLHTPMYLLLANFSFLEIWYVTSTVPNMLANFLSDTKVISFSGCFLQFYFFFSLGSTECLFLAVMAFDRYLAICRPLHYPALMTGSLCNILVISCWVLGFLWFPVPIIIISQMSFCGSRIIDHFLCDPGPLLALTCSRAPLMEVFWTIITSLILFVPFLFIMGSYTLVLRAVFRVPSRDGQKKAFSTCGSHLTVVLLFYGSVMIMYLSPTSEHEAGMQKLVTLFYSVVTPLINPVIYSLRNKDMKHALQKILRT
Chain of Olfr739 (E9Q1P0 entry or part of it): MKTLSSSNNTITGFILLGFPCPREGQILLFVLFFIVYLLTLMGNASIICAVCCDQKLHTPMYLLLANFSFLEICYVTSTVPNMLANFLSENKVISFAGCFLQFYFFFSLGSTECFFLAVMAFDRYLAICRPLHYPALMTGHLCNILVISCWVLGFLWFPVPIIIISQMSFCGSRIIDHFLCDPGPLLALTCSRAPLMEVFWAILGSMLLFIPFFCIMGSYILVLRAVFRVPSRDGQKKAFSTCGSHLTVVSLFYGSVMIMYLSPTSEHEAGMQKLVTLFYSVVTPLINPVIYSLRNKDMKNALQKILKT
Chain of Olfr743 (L7N1Y2 entry or part of it): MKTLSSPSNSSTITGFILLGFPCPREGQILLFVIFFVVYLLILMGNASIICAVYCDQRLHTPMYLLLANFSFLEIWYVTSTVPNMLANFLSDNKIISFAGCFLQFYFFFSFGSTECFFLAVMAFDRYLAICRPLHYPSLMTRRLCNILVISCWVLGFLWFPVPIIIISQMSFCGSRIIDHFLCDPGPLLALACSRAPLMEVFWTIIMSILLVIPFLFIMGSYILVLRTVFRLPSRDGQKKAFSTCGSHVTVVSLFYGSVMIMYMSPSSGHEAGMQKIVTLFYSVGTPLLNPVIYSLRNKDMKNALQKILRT
Chain of Olfr742 (A2RTP5 entry or part of it): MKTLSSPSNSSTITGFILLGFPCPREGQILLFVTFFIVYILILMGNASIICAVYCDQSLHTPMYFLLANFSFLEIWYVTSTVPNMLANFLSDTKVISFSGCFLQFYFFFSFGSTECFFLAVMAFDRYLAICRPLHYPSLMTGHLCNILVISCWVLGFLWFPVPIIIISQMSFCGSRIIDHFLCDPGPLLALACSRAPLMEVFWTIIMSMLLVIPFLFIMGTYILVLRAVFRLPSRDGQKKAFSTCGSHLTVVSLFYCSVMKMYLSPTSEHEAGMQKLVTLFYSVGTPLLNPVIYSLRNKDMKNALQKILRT
Chain of Olfr748 (E9Q9Z0 entry or part of it): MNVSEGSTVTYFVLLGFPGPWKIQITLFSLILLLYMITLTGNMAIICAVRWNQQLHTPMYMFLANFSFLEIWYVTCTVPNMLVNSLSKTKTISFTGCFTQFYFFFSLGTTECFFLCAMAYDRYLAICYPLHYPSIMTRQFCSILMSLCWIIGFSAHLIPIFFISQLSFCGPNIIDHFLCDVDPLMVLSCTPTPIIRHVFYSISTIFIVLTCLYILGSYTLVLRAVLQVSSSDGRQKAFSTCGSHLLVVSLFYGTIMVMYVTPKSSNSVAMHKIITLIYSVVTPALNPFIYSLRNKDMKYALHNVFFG

Compound: 6(8)-ISOPROPYLQUINOLINE [isopropyl quinoline]
- IC50 [1]: 400 µM
- % Remaining in human sensory tests [2]: 110%
- % Earthy/Moss Odor Remaining ([3]; Low Dilution Test Compound + Geonol (0.1%)): 99.60%
- % Earthy/Moss Odor Remaining ([3]; Medium Dilution Test Compound + Geonol (0.1%)): 104.70%
- % Earthy/Moss Odor ([3]; Test Compound Only): 54.70%
- Olfr738 % Inhibition (Olfr738; Table 22, first listing): 20.66%
- IC50 (Olfr738; Table 22, first listing): 120 µM
- Olfr738 % Inhibition (Olfr738; [6]): 39.62%
- Olfr740 % Inhibition (Olfr740; Table 22, first listing): 148.06%
- IC50 (Olfr740; Table 22, first listing): 40.9 µM
- IC50 (Olfr741; Table 22, first listing): 91.6 µM
- Olfr741 % Inhibition (Olfr741; Table 22, first listing): 54.55%
- Olfr742 % Inhibition (Olfr742; Table 22, first listing): 72.34%
- IC50 (Olfr742; Table 22, first listing): 86.6 µM
- IC50 (Olfr739; Table 22, first listing): 61.3 µM
- Olfr739 % Inhibition (Olfr739; Table 22, first listing): 74.96%
- Olfr739 % Inhibition (Olfr739; [6]): 116.59%
- IC50 (Olfr743): 119 µM
- Olfr743 % Inhibition (Olfr743): 39.62%
- IC50 (Olfr744): 102 µM
- Olfr744 % Inhibition (Olfr744): 116.59%

Compound: C=CCCC(=O)C1=CCCC(C)(C)C1 [1-(5,5-dimethylcyclohexen-1-yl)pent-4-en-1-one]
- IC50 [4]: 220 µM
- Inhibition(%) [4]: 40%
- Emax (Olfr740; Table 22, first listing): 91.2%
- Emax (Olfr740; [6]): 58.9%
- IC50 (Olfr740; [7]): 63.6 µM
- IC50 (Olfr746): 224 µM
- Olfr746 % Inhibition (Olfr746): 58.87%

Compound: c1nc2c(o1)CCCCCCCCCC2 [4,5,6,7,8,9,10,11,12,13-decahydrocyclododeca[d][1,3]oxazole]
- IC50 [5]: 38 µM
- Inhibition(%) [5]: 77%
- IC50 (Olfr738; [7]): 9.26 µM
- Olfr738 % Inhibition (Olfr738; Table 22, first listing): 93.54%
- Olfr738 % Inhibition (Olfr738; [6]): 31.68%
- Emax (Olfr740; Table 22, first listing): 102%
- IC50 (Olfr740; [7]): 5.52 µM
- IC50 (Olfr741; Table 22, first listing): 33.7 µM
- Olfr741 % Inhibition (Olfr741; Table 22, first listing): 62.10%
- IC50 (Olfr741; [6]): 216 µM
- Olfr741 % Inhibition (Olfr741; [6]): 12.61%
- Emax (Olfr742; Table 22, first listing): 59.7%
- Emax (Olfr742; [6]): 57.9%
- IC50 (Olfr742; [7]): 26.8 µM
- IC50 (Olfr748): 216 µM
- Olfr748 % Inhibition (Olfr748): 12.61%
- Olfr739 % Inhibition (Olfr739; Table 22, first listing): 61.91%
- IC50 (Olfr739; [7]): 24.1 µM
- Olfr739 % Inhibition (Olfr739; [6]): 38.37%
- IC50 (Olfr743): 58.9 µM
- Olfr743 % Inhibition (Olfr743): 31.68%
- IC50 (Olfr744): 117 µM
- Olfr744 % Inhibition (Olfr744): 38.37%
- IC50 (Olfr749): 70 µM
- Olfr749 % Inhibition (Olfr749): 57.85%
